Experimental data published in PMC9855432, “Novel Set of Diarylmethanes to Target Colorectal Cancer: Synthesis, In Vitro and In Silico Studies” (Biomolecules, 2022).

Key:
[1] = tested on: human CRC HT-29 cells; experiment: MTT cell viability / IC50 on HT-29 cells; format: cell-based; conditions: for IC50: MTT assay, 1 to 50 µM, mean ± SEM of at least three experiments; for viability at 50 µM: HT-29, MTT screening
Description: (§1) Cells were grown in DMEM medium for HT-29 cells and RPMI 1640 medium for HCT116 cells, supplemented with 10% FBS, 1% L-glutamine and 100 U/mL penicillin and 100 μg/mL streptomycin. Cultures were maintained in a humidified atmosphere containing 5% CO2 at 37 °C. Stock solutions of each compound were used at 10^−2 M in DMSO and then diluted in culture medium to obtain the appropriate final concentrations. […] L929 cell line is a non-cancer cell line derived from L-strain (L cells) and has been grown in the Peptinov laboratory for years. L929 cells are murine adherent fibroblasts from subcutaneous connective tissue (areolar and adipose tissues). Cells were grown in DMEM medium supplemented with 10% FBS, 1% L-glutamine and 100 U/mL penicillin and 100 µg/mL streptomycin and maintained in a humidified incubator at 37 °C, 5% CO2. When confluence is at 80%, cells are trypsinyzed for 3 min and diluted in fresh medium. Each batch of cells is kept for 15 passages before being discarded and a new batch thawed.
(§2) All compounds were tested on the metabolic activity of the cells using the MTT colorimetric assay. Briefly, cells were seeded in 96-well microplates at 8 × 10^3 cells/well for human CRC HT-29 cells and 5 × 10^3 cells/well for human CRC HCT116 cells and grown for 24 h in appropriate culture medium prior to exposure or not to compounds (6–27) with concentration ranges from 1 to 50 µM. After 48 h of treatment, MTT (5 g/L in Phosphate-buffered saline (PBS)) was added and incubated for another 3 h. The MTT was then removed from the wells and 100 µL/well of DMSO were added to dissolve formazan. The optical density was detected with a microplate reader (Thermoscientific, Multiskan FC) at 550 nm and cell viability was expressed as a percentage of each treatment condition compared to control cells. IC50 values were calculated for all compounds from the dose–response curve.

[2] = tested on: human CRC HCT116 cells; experiment: MTT cell viability / IC50 on HCT116 cells; format: cell-based; conditions: for IC50: MTT assay, 1 to 50 µM, mean ± SEM of at least three experiments
Description: as §1, §2

[3] = concentrations up to 50 µM, 48 h

| Compound | IC50 ([1]; Homo sapiens, HT-29, 48 h) | IC50 ([2]; Homo sapiens, HCT-116, 48 h) | further results |
| --- | --- | --- | --- |
| COc1ccc(C(=Cc2ccc(Cl)cc2)c2ccccn2)cc1 [Compound 14b, 2-(2-(4-chlorophenyl)-1-(4-methoxyphenyl)vinyl)pyridine] |  |  | IC50 ([1]; 48 h): > 50 µM; IC50 ([2]; 48 h): > 50 µM |
| COc1ccc(C(=Cc2ccc(F)cc2)c2ccccn2)cc1 [Compound 15a, 2-(2-(4-fluorophenyl)-1-(4-methoxyphenyl)vinyl)pyridine] | 43.43 ± 0.31 µM | > 50 µM | viability at 50 µM ([1]; Homo sapiens, 48 h): < 50% |
| COc1ccc(C(=Cc2ccc(F)cc2)c2ccccn2)cc1 [Compound 15b, 2-(2-(4-fluorophenyl)-1-(4-methoxyphenyl)vinyl)pyridine] |  |  | IC50 ([1]; 48 h): > 50 µM; IC50 ([2]; 48 h): > 50 µM |
| COc1ccc(C(Oc2ccccc2)c2ccccn2)cc1 (stereo not drawn) [Compound 17, 2-((4-methoxyphenyl)(phenoxy)methyl)pyridine] | > 50 µM | > 50 µM |  |
| COc1ccc(C(Oc2ccc(C)cc2)c2ccccn2)cc1 (stereo not drawn) [Compound 18, 2-((4-methoxyphenyl)(p-tolyloxy)methyl)pyridine] | > 50 µM | > 50 µM |  |
| COc1ccc(OC(c2ccc(OC)cc2)c2ccccn2)cc1 (stereo not drawn) [Compound 19, 2-((4-methoxyphenoxy)(4-methoxyphenyl)methyl)pyridine] | > 50 µM | > 50 µM |  |
| COc1ccc(C(Oc2ccc(C(C)(C)C)cc2)c2ccccn2)cc1 (stereo not drawn) [Compound 20, 2-((4-(tert-butyl)phenoxy)(4-methoxyphenyl)methyl)pyridine] | > 50 µM | > 50 µM |  |
| COc1ccc(C(Oc2ccc(Cl)cc2)c2ccccn2)cc1 (stereo not drawn) [Compound 21, 2-((4-chlorophenoxy)(4-methoxyphenyl)methyl)pyridine] | > 50 µM | > 50 µM |  |
| COc1ccc(C(Oc2ccc(Br)cc2)c2ccccn2)cc1 (stereo not drawn) [Compound 22, 2-((4-bromophenoxy)(4-methoxyphenyl)methyl)pyridine] | 37.9 ± 1.87 µM | 41.5 ± 1.48 µM | viability at 50 µM ([1]; Homo sapiens, 48 h): < 50%; antiproliferative activity HT-29 (in words) [1, 3]: potential antiproliferative activity; viability at 50 µM ([2]; Homo sapiens, HCT-116, 50 µM, 48 h, MTT screening): < 50%; antiproliferative activity HCT116 (in words) [2, 3]: potential antiproliferative activity |
| COc1ccc(C(Oc2ccc(F)cc2)c2ccccn2)cc1 (stereo not drawn) [Compound 23, 2-((4-fluorophenoxy)(4-methoxyphenyl)methyl)pyridine] | > 50 µM | > 50 µM |  |
| COc1ccc(C(Oc2ccc(C(F)(F)F)cc2)c2ccccn2)cc1 (stereo not drawn) [Compound 24, 2-((4-methoxyphenyl)(4-(trifluoromethyl)phenoxy)methyl)pyridine] | > 50 µM | > 50 µM |  |
| COc1ccc(C(Oc2ccc([N+](=O)[O-])cc2)c2ccccn2)cc1 (stereo not drawn) [Compound 25, 2-((4-methoxyphenyl)(4-nitrophenoxy)methyl)pyridine] | > 50 µM | > 50 µM |  |
| COc1ccc(C(Oc2ccc(N(C)C)cc2)c2ccccn2)cc1 (stereo not drawn) [Compound 26, 4-((4-methoxyphenyl)(pyridin-2-yl)methoxy)-N,N-dimethylaniline] | > 50 µM | > 50 µM |  |
| COc1ccc(C(Oc2ccc(C(C)=O)cc2)c2ccccn2)cc1 (stereo not drawn) [Compound 27, 1-(4-((4-methoxyphenyl)(pyridin-2-yl)methoxy)phenyl)ethanone] | > 50 µM | > 50 µM |  |
